Results: patent US20240270701A1, “BETA ADRENERGIC AGONIST AND METHODS OF USING THE SAME” (Curasen Therapeutics, Inc., priority 2021, published 2024)
Like-named read-outs stand apart in the source and are kept apart here.

Key:
[1] = target: T1, B2-AR (Homo sapiens, UniProt P07550); assay: cAMP Gs dynamic HTRF assay, cells expressing beta-adrenergic receptor (CHO-K1), B2-AR; type: cell-based; conditions: for Emax: relative to full agonist isoproterenol, read-out: Emax (% iso) (%) [B2-AR]; for EC50: cAMP HTRF, read-out: pEC50 [B2-AR] (converted)
T1 construct: expressed in transfected cells; host or cells: CHO-K1
T1 sequence (P07550 whole entry, species assumed): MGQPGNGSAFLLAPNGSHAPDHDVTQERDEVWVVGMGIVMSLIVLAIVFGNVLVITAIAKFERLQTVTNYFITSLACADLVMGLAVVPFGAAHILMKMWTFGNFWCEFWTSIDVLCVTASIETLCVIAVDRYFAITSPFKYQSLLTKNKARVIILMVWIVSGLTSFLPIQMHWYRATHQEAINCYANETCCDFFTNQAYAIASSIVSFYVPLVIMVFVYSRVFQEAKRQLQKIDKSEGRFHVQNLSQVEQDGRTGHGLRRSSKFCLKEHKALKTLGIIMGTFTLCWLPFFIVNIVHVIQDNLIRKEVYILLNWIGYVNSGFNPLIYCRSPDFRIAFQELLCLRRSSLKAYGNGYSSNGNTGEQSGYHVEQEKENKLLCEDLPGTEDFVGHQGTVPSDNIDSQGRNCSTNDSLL

[2] = target: T2, B1-AR (Homo sapiens, UniProt P08588); assay: cAMP Gs dynamic HTRF assay, cells expressing beta-adrenergic receptor (CHO-K1), B1-AR; type: cell-based; conditions: for EC50: cAMP HTRF, read-out: pEC50 [B1-AR] (converted); for Emax: relative to full agonist isoproterenol, read-out: Emax (% iso) (%) [B1-AR]
T2 construct: expressed in transfected cells; host or cells: CHO-K1
T2 sequence (P08588 whole entry, species assumed): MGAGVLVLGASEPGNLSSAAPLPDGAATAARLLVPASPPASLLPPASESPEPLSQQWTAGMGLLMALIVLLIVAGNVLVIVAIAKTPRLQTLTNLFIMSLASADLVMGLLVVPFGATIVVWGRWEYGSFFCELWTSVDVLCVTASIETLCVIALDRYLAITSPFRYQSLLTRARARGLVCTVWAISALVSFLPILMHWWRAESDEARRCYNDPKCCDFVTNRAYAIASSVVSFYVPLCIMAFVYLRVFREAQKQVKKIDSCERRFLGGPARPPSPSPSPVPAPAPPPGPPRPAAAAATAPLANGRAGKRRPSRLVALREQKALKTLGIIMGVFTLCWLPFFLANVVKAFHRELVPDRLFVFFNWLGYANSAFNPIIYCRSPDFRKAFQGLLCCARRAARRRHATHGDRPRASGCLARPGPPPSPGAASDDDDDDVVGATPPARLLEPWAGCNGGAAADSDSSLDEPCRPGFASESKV

SMILES | Emax ([1]; CHO-K1, CHO-K1 cells) | EC50 ([1]; CHO-K1 cells) | EC50 [2] | Emax [2] | Emax ([1]; CHO-K1 cells)
CC1(NC[C@H](O)c2cccc3[nH]cc(F)c23)CCC1 [I-110] | > 90% | < 10 nM | < 10 nM | > 90% | –
CC(C)CNC[C@H](O)c1cccc2[nH]cc(F)c12 [I-111] | 70 to 90% | 10 to 100 nM | 10 to 100 nM | > 90% | –
CC(C)NC[C@H](O)c1cccc2[nH]cc(F)c12 [I-112] | > 90% | < 10 nM | < 10 nM | > 90% | –
O[C@@H](CNC1CCC1)c1cccc2[nH]cc(F)c12 [I-113] | > 90% | 10 to 100 nM | < 10 nM | > 90% | –
CC(C)(C)NC[C@H](O)c1cccc2[nH]nc(Cl)c12 [I-114] | > 90% | < 10 nM | < 10 nM | > 90% | –
Cc1c(Cl)[nH]c2cccc([C@@H](O)CNC(C)(C)C)c12 [I-115] | 70 to 90% | 100 to 1000 nM | > 1000 nM | 70 to 90% | –
CC(C)(CO)NC[C@H](O)c1ccc(Cl)c2[nH]ncc12 [I-116] | 70 to 90% | < 10 nM | 10 to 100 nM | 70 to 90% | –
CC(C)CNC[C@H](O)c1ccc(Cl)c2[nH]ncc12 [I-117] | – | 10 to 100 nM | 10 to 100 nM | 50 to 70% | 70 to 90%
CC1(NC[C@H](O)c2ccc(Cl)c3[nH]ncc23)CCC1 [I-118] | 70 to 90% | < 10 nM | < 10 nM | 70 to 90% | –
O[C@@H](CNC1CCC1)c1ccc(Cl)c2[nH]ncc12 [I-119] | – | < 10 nM | < 10 nM | 70 to 90% | 70 to 90%
CC1(NC[C@H](O)c2ccc(Cl)c3[nH]ncc23)CC1 [I-120] | 70 to 90% | < 10 nM | < 10 nM | 70 to 90% | –
O[C@@H](CNC1CC1)c1ccc(Cl)c2[nH]ncc12 [I-121] | 70 to 90% | < 10 nM | < 10 nM | 50 to 70% | –
CC(C)NC[C@H](O)c1ccc(Cl)c2[nH]ncc12 [I-122] | 70 to 90% | < 10 nM | < 10 nM | 70 to 90% | –
CC(C)(C)NC[C@H](O)c1cc(C(F)F)cc2[nH]ncc12 [I-123] | 70 to 90% | 100 to 1000 nM | > 1000 nM | 70 to 90% | –
CC(C)CNC[C@H](O)c1ccc2[nH]cc(F)c2c1 [I-124] | > 90% | 100 to 1000 nM | > 1000 nM | 70 to 90% | –
CC(C)(C)NC[C@H](O)c1cccc2[nH]nc(C3CC3)c12 [I-125] | – | 100 to 1000 nM | 100 to 1000 nM | 70 to 90% | 70 to 90%
CC1(NC[C@H](O)c2cccc3[nH]nc(F)c23)CC1 [I-126] | > 90% | < 10 nM | < 10 nM | 70 to 90% | –
O[C@@H](CNC1CCC1)c1cccc2[nH]ncc12 [I-127] | > 90% | < 10 nM | < 10 nM | > 90% | –
CC1(NC[C@H](O)c2cccc3[nH]ncc23)CCC1 [I-128] | – | < 10 nM | < 10 nM | > 90% | > 90%
CC1(NC[C@H](O)c2cccc3[nH]ncc23)CC1 [I-129] | – | < 10 nM | < 10 nM | > 90% | > 90%
CC1(NC[C@H](O)c2cccc3[nH]nc(F)c23)CCC1 [I-130] | – | < 10 nM | < 10 nM | > 90% | > 90%
CC(C)(C)NC[C@H](O)c1cc(F)cc2[nH]cnc12 [I-131] | 70 to 90% | 10 to 100 nM | 10 to 100 nM | > 90% | –
CC(C)(CO)NC[C@H](O)c1cccc2[nH]nc(F)c12 [I-132] | > 90% | < 10 nM | < 10 nM | > 90% | –

SMILES | Emax ([1]; CHO-K1, CHO-K1 cells) | EC50 ([1]; CHO-K1 cells) | EC50 [2] | Emax [2] | Emax ([1]; CHO-K1 cells)
CC(C)CNC[C@H](O)c1cccc2[nH]ncc12 [I-133] | > 90% | < 10 nM | 10 to 100 nM | 70 to 90% | –
O[C@@H](CNC1CC1)c1cccc2[nH]ncc12 [I-134] | – | < 10 nM | < 10 nM | 70 to 90% | > 90%
Cc1cc([C@@H](O)CNC2CC2)c2cn[nH]c2c1 [I-135] | – | < 10 nM | < 10 nM | 70 to 90% | 70 to 90%
Cc1cc([C@@H](O)CNC2CCC2)c2cn[nH]c2c1 [I-136] | > 90% | < 10 nM | < 10 nM | > 90% | –
O[C@@H](CNC1CCC1)c1ccc(F)c2[nH]ncc12 [I-137] | – | < 10 nM | < 10 nM | 70 to 90% | > 90%
CC(C)CNC[C@H](O)c1cccc2[nH]nc(F)c12 [I-138] | – | < 10 nM | 10 to 100 nM | 70 to 90% | > 90%
CC(C)NC[C@H](O)c1cccc2[nH]nc(F)c12 [I-139] | – | < 10 nM | < 10 nM | > 90% | > 90%
O[C@@H](CNC1CC1)c1cccc2[nH]nc(F)c12 [I-140] | – | < 10 nM | < 10 nM | > 90% | > 90%
CC(C)(C)NC[C@@H](O)c1ccc(N)nn1 [I-141] | > 90% | 100 to 1000 nM | > 1000 nM | > 90% | –
CC(C)(C)NC[C@H](O)c1ccc(N)nn1 [I-142] | > 90% | 10 to 100 nM | 10 to 100 nM | > 90% | –
CC(C)(C)NC[C@@H](O)c1cccc(Br)n1 [I-143] | 50 to 70% | > 1000 nM | 100 to 1000 nM | 70 to 90% | –
Cc1nc(N)ncc1[C@@H](O)CNC(C)(C)C [I-144] | > 90% | 10 to 100 nM | > 1000 nM | 70 to 90% | –
Cc1nc(N)c(Cl)cc1[C@@H](O)CNC(CO)CO [I-145] | – | > 1000 nM | > 1000 nM | 70 to 90% | 70 to 90%
Cc1nc(N)c(Cl)cc1[C@@H](O)CNC1COC1 [I-146] | – | > 1000 nM | > 1000 nM | < 50% | > 90%
CC(C)(C)NC[C@H](O)c1cccc2[nH]c(=O)sc12 [I-147] | – | < 10 nM | < 10 nM | 70 to 90% | > 90%
CC1(N[C@H](CO)c2cncc3[nH]ncc23)CC1 [I-148] | – | > 1000 nM | > 1000 nM | 70 to 90% | 70 to 90%
CC1(N[C@@H](CO)c2cncc3[nH]ncc23)CC1 [I-149] | – | > 1000 nM | > 1000 nM | < 50% | 70 to 90%
Cc1nc(N)ccc1[C@@H](O)CNC(C)(C)C [I-150] | > 90% | < 10 nM | 10 to 100 nM | > 90% | –
CC(C)(CO)NC[C@H](O)c1cc(C#N)cc2[nH]ncc12 [I-151] | > 90% | 100 to 1000 nM | 100 to 1000 nM | 70 to 90% | –
N#Cc1cc([C@@H](O)CNC2CCC2)c2cn[nH]c2c1 [I-152] | – | 10 to 100 nM | 10 to 100 nM | 70 to 90% | > 90%
N#Cc1cc([C@@H](O)CNC2CC2)c2cn[nH]c2c1 [I-153] | – | 100 to 1000 nM | 100 to 1000 nM | 70 to 90% | > 90%
Cc1nc(N)ccc1[C@@H](O)CNC1(C)CCC1 [I-154] | > 90% | < 10 nM | 100 to 1000 nM | > 90% | –
